The values that follow come from ChEMBL document CHEMBL5625261, “Cytotoxic effects of kinetin riboside and its selected analogues on cancer cell lines” (Bioorg Med Chem Lett, 2024).

Usually pIC50 stands for the IC50 on a negative log10 scale, so that one unit is a factor of ten. Broadly, the IC50 is the concentration that gives 50% inhibition.

Each structure is given as a SMILES string. pIC50: −log10 of the molar value.

The test system of data set [1] is HeLa. The data set can be described thus: Cytotoxicity against human HeLa cells assessed as reduction in cell viability incubated for 24 hrs by MTT assay. The data set is classed as functional, cell-based. On the technique in general: Tetrazolium dyes change colour on reduction, which living cells bring about.
In data set [2] the test system is HeLa. The data set can be described thus: Cytotoxicity against human HeLa cells assessed as reduction in cell viability incubated for 48 hrs by MTT assay. The data set is classed as functional, cell-based.
Data set [3] deals with HeLa. The data set can be described thus: Cytotoxicity against human HeLa cells assessed as reduction in cell viability incubated for 72 hrs by MTT assay. It is filed as functional, cell-based.
The subject of data set [4] is MCF7. The data set can be described thus: Cytotoxicity against human MCF7 cells assessed as reduction in cell viability incubated for 24 hrs by MTT assay. The data set is classed as functional, cell-based. Conditions: MCF7, 24 h.
Data set [5] concerns MCF7. The data set can be described thus: Cytotoxicity against human MCF7 cells assessed as reduction in cell viability incubated for 48 hrs by MTT assay. It is filed as functional, cell-based. Conditions: MCF7, 48 h.
The subject of data set [6] is MCF7. The data set can be described thus: Cytotoxicity against human MCF7 cells assessed as reduction in cell viability incubated for 72 hrs by MTT assay. Conditions: MCF7, 72 h. The data set is classed as functional, cell-based.
The test system of data set [7] is Caco-2. The data set can be described thus: Cytotoxicity against human Caco-2 cells assessed as reduction in cell viability incubated for 24 hrs by MTT assay. The data set is classed as functional, cell-based. The following applies: Caco-2, 24 h.
Data set [8] has as its system Caco-2. The data set can be described thus: Cytotoxicity against human Caco-2 cells assessed as reduction in cell viability incubated for 48 hrs by MTT assay. The following applies: Caco-2, 48 h. It is filed as functional, cell-based.
Data set [9] has as its system Caco-2. The data set can be described thus: Cytotoxicity against human Caco-2 cells assessed as reduction in cell viability incubated for 72 hrs by MTT assay. It is filed as functional, cell-based. Conditions: Caco-2, 72 h.
Data set [10] has as its system OVCAR-3. The data set can be described thus: Cytotoxicity against human OVCAR-3 cells assessed as reduction in cell viability incubated for 24 hrs by MTT assay. The data set is classed as functional, cell-based. The following applies: OVCAR-3, 24 h.
For data set [11], the system named is OVCAR-3. The data set can be described thus: Cytotoxicity against human OVCAR-3 cells assessed as reduction in cell viability incubated for 48 hrs by MTT assay. The data set is classed as functional, cell-based. Conditions: OVCAR-3, 48 h.
Data set [12] relates to OVCAR-3. The data set can be described thus: Cytotoxicity against human OVCAR-3 cells assessed as reduction in cell viability incubated for 72 hrs by MTT assay. Conditions: OVCAR-3, 72 h. The data set is classed as functional, cell-based.
Data set [13] relates to MIA PaCa-2. The data set can be described thus: Cytotoxicity against human MIA PaCa-2 cells assessed as reduction in cell viability incubated for 24 hrs by MTT assay. The data set is classed as functional, cell-based. The following applies: MIA PaCa-2, 24 h.
Data set [14] relates to MIA PaCa-2. The data set can be described thus: Cytotoxicity against human MIA PaCa-2 cells assessed as reduction in cell viability incubated for 48 hrs by MTT assay. The data set is classed as functional, cell-based. Conditions: MIA PaCa-2, 48 h.
Data set [15] deals with MIA PaCa-2. The data set can be described thus: Cytotoxicity against human MIA PaCa-2 cells assessed as reduction in cell viability incubated for 72 hrs by MTT assay. The data set is classed as functional, cell-based. Conditions: MIA PaCa-2, 72 h.
Data set [16] in a line: Cytotoxicity against human MRC5 cells assessed as reduction in cell viability incubated for 24 hrs by MTT assay. It is filed as toxicity, cell-based.
Data set [17] is described as follows: Cytotoxicity against human MRC5 cells assessed as reduction in cell viability incubated for 48 hrs by MTT assay. It is filed as toxicity, cell-based.
The nature of data set [18]: Cytotoxicity against human MRC5 cells assessed as reduction in cell viability incubated for 72 hrs by MTT assay. The data set is classed as toxicity, cell-based.
Data set [19] relates to MIA PaCa-2. The data set can be described thus: Cytotoxicity against human MIA PaCa-2 cells assessed as reduction in cell viability at 100 uM incubated for 24 hrs by MTT assay relative to control. The data set is classed as functional.
For data set [20], the system named is MIA PaCa-2. The data set can be described thus: Cytotoxicity against human MIA PaCa-2 cells assessed as reduction in cell viability at 100 uM incubated for 72 hrs by MTT assay relative to control. The data set is classed as functional.

As to `OC[C@H]1O[C@@H](n2cnc3c(NCc4cccs4)ncnc32)[C@H](O)[C@@H]1O`, the pIC50 is below 4.00 in data set [1]; below 4.00 in data set [2]; below 4.00 in [3]; 4.68 in [4]; 5.52 in data set [5]; 5.59 in data set [6]. Also, the pIC50 was 4.77 in [7]; 4.98 in data set [8]; 5.23 in [9]; below 4.00 in [10]; 5.54 in [11]; 5.82 in data set [12]. The pIC50 in data set [13] is below 4.00; in data set [14], 5.92; in data set [15] it was 5.96. Moreover, the half-maximal inhibitory concentration (IC50) at 24 h in data set [16] is 12.7 µM. Further, the half-maximal inhibitory concentration (IC50) at 48 h in data set [17] is 2.1 µM. Besides, the half-inhibitory concentration (IC50) at 72 h in [18] worked out at 1.8 µM.
Turning to `Nc1nc(NCc2ccco2)nc2c1ncn2[C@@H]1O[C@H](CO)[C@@H](O)[C@H]1O`, the negative logarithm of the IC50 (pIC50) in data set [1], in [2], in data set [3], in [4], in data set [5] and in [6] was below 4.00 each time. Besides, the pIC50 in data set [7], in data set [8], in data set [9], in [10], in data set [11] and in data set [12] was below 4.00 in each case. In addition, the negative-log IC50 (pIC50) in data set [13], in data set [14] and in data set [15] was below 4.00 each time. The half-inhibitory concentration (IC50) at 24 h in [16] was above 100 µM. Further, the concentration for half-maximal inhibition (IC50) at 48 h in [17] is above 100 µM. Further, the IC50 at 72 h in data set [18] was above 100 µM.
In the case of `OC[C@H]1O[C@@H](n2cnc3c(NCc4ccco4)ncnc32)[C@@H](O)[C@@H]1O`, the negative-log IC50 (pIC50) in data set [1], in [2], in data set [3], in data set [4], in [5] and in data set [6] was below 4.00 in each case. For the same compound, the pIC50 in data set [7], in [8], in data set [9], in data set [10], in data set [11] and in data set [12] was below 4.00 each time. The pIC50 in data set [13], in data set [14] and in [15] was below 4.00 each time. For the same compound, in data set [16], the half-maximal inhibitory concentration (IC50) at 24 h was above 100 µM. Besides, in data set [17], the IC50 at 48 h is above 100 µM. In addition, the half-inhibitory concentration (IC50) at 72 h in [18] was above 100 µM.
With `OC[C@H]1O[C@@H](n2nnc3c(NCc4ccco4)ncnc32)[C@H](O)[C@@H]1O`, the negative-log IC50 (pIC50) in data set [1] was below 4.00; in [2], 4.84; in data set [3] it was 5.34; in data set [4], 4.57; in [5], 5.37; in data set [6], 5.42. For the same compound, the negative logarithm of the IC50 (pIC50) in data set [7] was 4.60; in data set [8], 4.73; in data set [9], 4.94; in [10] it was below 4.00; in data set [11], 4.12; in [12], 5.96. Also, the results for the negative logarithm of the IC50 (pIC50) in [13], in data set [14] and in [15] were below 4.00, 5.55 and 5.96, respectively. For the same compound, the IC50 at 24 h in [16] was above 100 µM. Moreover, in data set [17], the half-maximal inhibitory concentration (IC50) at 48 h is 11.7 µM. Further, the half-inhibitory concentration (IC50) at 72 h in [18] was 4.6 µM.
Take `OC[C@H]1O[C@@H](n2cnc3c(NCc4ccco4)ncnc32)C[C@@H]1O`: the pIC50 in [1], in [2], in data set [3], in data set [4], in data set [5] and in data set [6] was below 4.00 each time. Besides, the negative-log IC50 (pIC50) in data set [7], in data set [8], in data set [9], in data set [10], in [11] and in data set [12] was below 4.00 in each case. In addition, the pIC50 in data set [13], in data set [14] and in data set [15] was below 4.00 in each case. In addition, the IC50 at 24 h in [16] was above 100 µM. The IC50 at 48 h in data set [17] was above 100 µM. Moreover, in data set [18], the IC50 at 72 h was above 100 µM.
With `Nc1nc(NCc2ccco2)c2ncn([C@@H]3O[C@H](CO)[C@@H](O)[C@H]3O)c2n1`, the pIC50 in [1], in data set [2], in data set [3], in data set [4], in data set [5] and in data set [6] was below 4.00 each time. For the same compound, the negative logarithm of the IC50 (pIC50) in data set [7], in data set [8], in data set [9], in data set [10], in [11] and in data set [12] was below 4.00 in each case. Also, the negative-log IC50 (pIC50) in data set [13], in data set [14] and in data set [15] was below 4.00 throughout. Further, the IC50 at 24 h in [16] is above 100 µM. The IC50 at 48 h in data set [17] was above 100 µM. The 50% inhibitory concentration (IC50) at 72 h in data set [18] was above 100 µM.
For `OC[C@H]1O[C@@H](n2cnc3c(NCc4ccoc4)ncnc32)[C@H](O)[C@@H]1O`, the negative logarithm of the IC50 (pIC50) is below 4.00 in [1]; below 4.00 in [2]; below 4.00 in data set [3]; 4.92 in [4]; 5.66 in data set [5]; 5.68 in data set [6]. The pIC50 in data set [7] was 4.73; in data set [8], 4.88; in data set [9], 5.19; in data set [10], below 4.00; in data set [11], 5.48; in data set [12], 5.74. Also, the pIC50 in data set [13] was below 4.00; in data set [14], 5.85; in [15], 5.96. In addition, in data set [16], the IC50 at 24 h was found to be 16 µM. Also, in [17], the IC50 at 48 h turned out to be 1 µM. The IC50 at 72 h in data set [18] came to 0.7 µM. For the same compound, the Activity in data set [19] is 40%; in [20], around 90%.
